Data on one cell line can be found in the supplement of paper PMC10307832.

Assay in all cases: relative viability (nuclei count vs DMSO), 5 days (fraction); higher = more cells survive
Compound in the assay “Trametinib + Crizotinib”: CC(=O)Nc1cccc(-n2c(=O)n(C3CC3)c(=O)c3c(Nc4ccc(I)cc4F)n(C)c(=O)c(C)c32)c1 [Trametinib] + C[C@@H](Oc1cc(-c2cnn(C3CCNCC3)c2)cnc1N)c1c(Cl)ccc(F)c1Cl [Crizotinib] (partner 1 µM)
Summed up: (§1)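 Lung cancer cell lines were seeded in 1536-well plates and dosed by pin tool the next day, with either a single drug or a fixed anchor-drug dose combined with five library-drug doses (not always all listed) spaced in √10 steps. Five days later, one step fixed the cells and stained their nuclei (final 0.05% Triton X-100, 1% formaldehyde, 1 ug/ml Hoechst), and nuclei were counted on 4× images. Relative viability is the nuclei count in treated wells divided by the count in vehicle wells, and each value is the median of duplicate plates.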

Compound in assay [1]: CN1C=C(C2=CC=CC=C21)/C=C\3/C4=C(C=CC=N4)NC3=O + CC(=O)c1c(C)c2cnc(Nc3ccc(N4CCNCC4)cn3)nc2n(C2CCCC2)c1=O [Palbociclib] (partner 0.5 µM)
A digest of the protocol: as §1

Compound in assay [2]: CN1C=C(C2=CC=CC=C21)/C=C\3/C4=C(C=CC=N4)NC3=O + Cc1cc(Nc2cc(N3CCN(C)CC3)nc(Sc3ccc(NC(=O)C4CC4)cc3)n2)n[nH]1 [Tozasertib] (partner 0.1 µM)
Summed up: as §1

Compound in assay [3]: CN1C=C(C2=CC=CC=C21)/C=C\3/C4=C(C=CC=N4)NC3=O + Cc1nc(NC(=O)N2CCC[C@H]2C(N)=O)sc1-c1ccnc(C(C)(C)C(F)(F)F)c1 [Alpelisib] (partner 2 µM)
Summed up: as §1

As for UMC-11, the relative viability with Trametinib + Crizotinib (first compound 0.0025 µM) is 0.634; in the assay with Trametinib + Crizotinib (first compound 0.007906 µM), 0.591; in the assay with Trametinib + Crizotinib (first compound 0.025 µM), 0.679; in the assay with Trametinib + Crizotinib (first compound 0.07906 µM), 0.647; with Trametinib + Crizotinib (first compound 0.25 µM), 0.566; in assay [1] (first compound 0.02 µM), 0.3. The relative viability in assay [1] (first compound 0.06325 µM) came to 0.318; in assay [1] (first compound 0.2 µM), 0.358; in assay [1] (first compound 0.6325 µM) it was 0.344; in assay [1] (first compound 2 µM) it was 0.332; in assay [2] (first compound 0.02 µM) it was 0.206; in assay [2] (first compound 0.06325 µM) it was 0.198. Further, the relative viability in assay [2] (first compound 0.2 µM) is 0.177; in assay [2] (first compound 0.6325 µM), 0.191; in assay [2] (first compound 2 µM), 0.227; in assay [3] (first compound 0.02 µM), 0.725; in assay [3] (first compound 0.06325 µM) it was 1.02; in assay [3] (first compound 0.2 µM) it was 1.01. Further, the relative viability in assay [3] (first compound 0.6325 µM) worked out at 1.05; in assay [3] (first compound 2 µM) it was 1.12.
